Results published in PMC10223284, “Category-Based Toxicokinetic Evaluations of Data-Poor Per- and Polyfluoroalkyl Substances (PFAS) using Gas Chromatography Coupled with Mass Spectrometry” (Toxics, 2023).
Where “and” joins values, the source holds several entries; their conditions need not be identical. Equal values may be shown once.

Legend:
[1] = tested on: human plasma; experiment: Chemical stability in plasma over the UC assay time course (T5hr/T1hr); details: for % remaining_PPB: chemical remaining in plasma over the PPB assay time course, NS = no significant loss; for PPB_Stab_Fail: flag for stability failure in the plasma protein binding assay (1 = fail, 0 = pass); for Fstable.Med: median fraction stable in plasma, UC assay Level4; for Stability (T5hr/ T1hr), replicates A, B, C: single replicate of one UC run; for Time 1 hr / Time 1 hr, Run-specific Avg: amount measured in plasma sample at 1 hr; for Time 1 hr / Time 5 hr: replicates A, B, C; for Time 1 hr / Time 1 hr, Run-specific Avg / Time 5 hr / Time 5 hr, Run-specific Avg: unit not given; for Time 1 hr, Run-specific Avg / Time 5 hr, Run-specific Avg: run average; for Time 5 hr / Time 5 hr, Run-specific Avg: amount measured in plasma sample at 5 hr
[2] = Abiotic loss in negative controls of the hepatocyte clearance assay (cell-free media, metabolically inactivated hepatocytes); assay type: in vitro ADME; details: flag for stability failure in hepatocyte clearance assay controls (1 or Fst = fail, 0 = pass)
Procedure: The hepatic metabolic stability assay measures the loss of a parent compound over time in a substrate-depletion approach. Briefly, hepatocyte suspensions, after a viability assessment, were diluted in complete William’s medium E (containing dexamethasone and cell maintenance cocktail B) prior to addition to 96-well polypropylene plates containing an equal volume of media spiked with the test compound (1 μM assay concentration; assay cell density = 50,000 cells/100 μL) and maintained at 37 °C with shaking. At each time point, relevant plates were crashed with an equal volume of ice-cold acetonitrile, centrifuged, and supernatant transferred to a new plate prior to storage at <−70 °C until quantitative analysis. Controls, run in parallel, included cell-free (i.e., media only) and metabolically inactivated hepatocytes to evaluate abiotic chemical stability in the aqueous media matrix with and without cellular protein. In preliminary runs, these controls were run at T0 and T240 only. If significant instability was noted, the hepatocyte clearance assay was rerun, including cell-free samples at each time point and metabolically inactivated hepatocytes at selected time points.
Negative controls, including media only and metabolically inactivated hepatocyte controls, were included to monitor abiotic loss (i.e., background clearance) during the assay. Where significant compound loss occurred using the analysis described above, background clearance rates were calculated and used to background-adjust hepatic metabolic clearance rates. Where chemicals were cleared prior to the end of the analysis, at 240 min (T240), the corresponding negative control timepoint was used for background subtraction. Any chemicals displaying a 50% or more abiotic loss at T120 were deemed unstable and were excluded from further analyses.

[3] = tested on: human plasma; experiment: Ultracentrifugation (UC) plasma protein binding assay, fraction unbound in plasma (fup); details: for Fup.Med: median fraction unbound in plasma; for Fup.Med / Fup.point: UC assay Level4; for Fup.point: point estimate of fraction unbound in plasma; for Mean fu: fraction unbound in human plasma, ultracentrifugation, some values based on eLOQ; for Fraction Unbound (fu), replicates A, B, C: single replicate of one UC run (aqueous fraction / Time 5 hr); for Aqueous Fraction / Aqueous Fraction, Run-specific Avg: amount measured in aqueous fraction after ultracentrifugation, unit not given; for Aqueous Fraction: replicates A, B, C; for Aqueous Fraction, Run-specific Avg: run average
[4] = average of one UC run (run date in line above)
[5] = mean T5hr/T1hr ratio over all replicates and runs, plasma
[6] = mean fraction unbound over all replicates and runs, UC assay, human plasma
[7] = mean T5hr/T1hr ratio in plasma over all replicates/runs
[8] = mean over all UC runs and replicates, human plasma

Compound	% remaining_PPB [1] [%]	PPB_Stab_Fail [1]	Fstable.Med [1]	Hep_Stab_Fail [2]	Fup.Med [3]	Fup.point [3]	Mean fu [3]	Time 1 hr [1]	Time 1 hr, Run-specific Avg [1]	Time 5 hr [1]	Time 5 hr, Run-specific Avg [1]	Stability (T5hr/ T1hr), Run-specific Avg ([1]; average of one UC run)	Mean Stability [1, 7]	Aqueous Fraction [3]	Aqueous Fraction, Run-specific Avg [3]	Fraction Unbound (fu), Run-specific Avg ([3]; average of one UC run)	also measured
C=CC(=O)OCC(F)(F)C(F)(F)C(F)(F)COC(=O)C=C [1H,1H,5H,5H-Perfluoro-1,5-pentanediol diacrylate]	0	1	0.00466	1	7.62E-09	0.177	–	–	–	–	–	–	–	–	–	–	–
OCC(F)(F)C(F)(F)C(F)(F)C(F)F [1H,1H,5H-Perfluoropentanol]	–	0	1	1	0.791	0.355	0.3616	–	–	–	–	–	–	–	–	–	Stability (T5hr/ T1hr), Run-specific Avg [1, 4]: 0.858; Mean Stability [1, 5]: 0.855; Stability (T5hr/ T1hr), replicates A, B, C [1]: 0.775 and 0.902 and 0.887; Fraction Unbound (fu), Run-specific Avg [3, 4]: 0.36; Mean Fu [3, 6]: 0.362; Fraction Unbound (fu), replicates A, B, C [3]: 0.445 and 0.315 and 0.324
C=CC(=O)OCC(F)(F)C(F)(F)C(F)(F)C(F)(F)C(F)(F)C(F)(F)C(F)(F)C(F)F [1H,1H,9H-Perfluorononyl acrylate]	0	1	0.000116	1	2.02E-08	0.315	–	–	–	–	–	–	–	–	–	–	–
NCC(F)(F)C(F)(F)C(F)(F)C(F)(F)C(F)(F)C(F)(F)C(F)(F)F [1H,1H-Perfluorooctylamine]	58	0	0.0977	Fst	0.605	0.345	0.105	5598.62 and 5535.59 and 4647.69	5260.63	3087.52 and 3094.29 and 2839.44	3090.91	0.588	0.577	245.64 and 173.583 and 303.476	240.90	0.08	Mean Fu ([3]; mean fraction unbound in human plasma over all UC replicates/runs): 0.081
C=CC(=O)OCCC(F)(F)C(F)(F)C(F)(F)C(F)(F)F [2-(Perfluorobutyl)ethyl acrylate]	0	1	0.000485	1	2.26E-06	0.078	–	–	–	–	–	–	–	–	–	–	–
OCCCCC(F)(F)C(F)(F)C(F)(F)C(F)(F)F [4:4 Fluorotelomer alcohol]	100	0	0.181	1	0.0608	0.0704	0.0640	11379.4 and 9453.92 and 9594.35	10142.56	9012.64 and 8012.91 and 8571.88	8512.77	0.839	0.850	460.145 and 470.255 and 706.065	545.49	0.064	–
OCC(F)(F)C(F)(F)C(F)(F)C(F)(F)C(F)(F)C(F)(F)F [6:1 Fluorotelomer alcohol]	–	0	0.204	1	0.0187	0.0386	–	10923.7 and 9182.55 and 11162.4	10422.90	5789.66 and 11336.8 and 10690.6	8563.21	0.822	0.907	212.981 and 210.941 and 147.734	190.55	0.0231	–
OCCC(F)(F)C(F)(F)C(F)(F)C(F)(F)C(F)(F)C(F)(F)F [6:2 Fluorotelomer alcohol]	100	0	0.205	1	0.232	0.152	–	10242.5 and 11181.9 and 10094.7	10506.38	8145.88 and 10628.7 and 9411.26	9387.28	0.893	0.895	219.897 and 3328.34 and 176.612	1241.62	0.0229	–
OCCCC(F)(F)C(F)(F)C(F)(F)C(F)(F)C(F)(F)C(F)(F)C(F)(F)F [7:3 Fluorotelomer alcohol]	–	0	–	1	–	–	0.0230	–	–	–	–	–	–	–	–	–	–
OCC(F)(F)C(F)(F)C(F)(F)C(F)(F)C(F)(F)C(F)(F)C(F)(F)C(F)(F)C(F)(F)C(F)(F)C(F)(F)F [11:1 Fluorotelomer alcohol]	100	0	0.341	1	0.0578	0.0621	0.0570	16624.1 and 16003.4 and 18170.7	16932.71	8697.13 and 19831.5 and 16897.3	14264.32	0.842	0.909	595.593 and 1494.34 and 453.605	847.84	0.0569	–
CN(C(=O)C(F)(F)C(F)(F)C(F)(F)F)[Si](C)(C)C [N-Methyl-N-trimethylsilylheptafluorobutyramide]	–	0	0.274	1	0.532	0.545	0.5451	–	–	–	–	–	–	–	–	–	Stability (T5hr/ T1hr), Run-specific Avg [1, 4]: 0.935; Mean Stability [1, 5]: 0.935; Stability (T5hr/ T1hr), replicates A, B, C [1]: 0.978 and 0.906 and 0.921; Fraction Unbound (fu), Run-specific Avg [3, 4]: 0.55; Mean Fu [3, 6]: 0.545; Fraction Unbound (fu), replicates A, B, C [3]: 0.507 and 0.525 and 0.603
NC(=O)C(F)(F)C(F)(F)C(F)(F)C(F)(F)C(F)(F)C(F)(F)C(F)(F)F [Perfluorooctanamide]	–	0	0.738	1	0.0252	0.0263	0.0282	–	–	–	–	–	–	–	–	–	Mean Stability (T5hr/T1hr) [1, 8]: 0.838; Stability (T5hr/ T1hr), Run-specific Avg ([1]; run-specific average): 0.841; Mean Fu (fraction unbound) [3, 8]: 0.028; Fraction Unbound (fu), Run-specific Avg ([3]; run-specific average): 0.0266
